# Laboratory results taken from PubChem BioAssay (NCI).
#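 Where inhibition never reached the appropriate level, the endpoint shown equals the highest concentration tested. Otherwise, values were interpolated linearly from a five-concentration, 48-hour dose response in 96-well plates. GI50 is the concentration that inhibits growth by half. The concentration for full growth arrest is given as TGI.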
# How the values were obtained:
# Assay in all cases: NCI-60 cell line screen, 48 h
# NCI-H460 lung = system: NCI-H460 lung
# SF-268 CNS = system: SF-268 CNS
# SNB-19 CNS = system: SNB-19 CNS
# KM20L2 colon = system: KM20L2 colon
# SF-539 CNS = system: SF-539 CNS
# A549 NSCLC = system: A549 NSCLC
# 786-0 renal = system: 786-0 renal
# SK-MEL-5 melanoma = system: SK-MEL-5 melanoma
# SW-620 colon = system: SW-620 colon
# UACC-62 melanoma = system: UACC-62 melanoma
# HCC-2998 colon = system: HCC-2998 colon
# HCT-116 colon = system: HCT-116 colon
# K-562 leukemia = system: K-562 leukemia
# HL-60(TB) leukemia = system: HL-60(TB) leukemia
# MDA-MB-435 = system: MDA-MB-435
# NCI-H23 lung = system: NCI-H23 lung
# MCF7 breast = system: MCF7 breast
# UACC-257 melanoma = system: UACC-257 melanoma
smiles,measurement,setting,value
O=C1C=CC=C[C@@H]2C(C3OCCO3)CC[C@H]12.[C-]#[O+].[C-]#[O+].[C-]#[O+].[Fe] (stereo not given in full),GI50,NCI-H460 lung,45.2 µM
same,TGI,NCI-H460 lung,> 100 µM
same,GI50,SF-268 CNS,> 60 µM
same,TGI,SF-268 CNS,> 100 µM
same,GI50,SNB-19 CNS,> 100 µM
same,TGI,SNB-19 CNS,> 100 µM
same,GI50,KM20L2 colon,> 100 µM
same,TGI,KM20L2 colon,> 100 µM
same,GI50,SF-539 CNS,44.6 µM
same,TGI,SF-539 CNS,77.2 µM
same,GI50,A549 NSCLC,> 100 µM
same,TGI,A549 NSCLC,> 100 µM
same,GI50,786-0 renal,> 69.3 µM
same,TGI,786-0 renal,> 100 µM
same,GI50,SK-MEL-5 melanoma,> 100 µM
same,TGI,SK-MEL-5 melanoma,> 100 µM
same,GI50,SW-620 colon,29.9 µM
same,TGI,SW-620 colon,> 100 µM
same,GI50,UACC-62 melanoma,> 59.8 µM
same,TGI,UACC-62 melanoma,> 100 µM
same,GI50,HCC-2998 colon,> 76.6 µM
same,TGI,HCC-2998 colon,> 100 µM
same,GI50,HCT-116 colon,18.9 µM
same,TGI,HCT-116 colon,41.5 µM
same,GI50,K-562 leukemia,41.6 µM
same,TGI,K-562 leukemia,> 100 µM
same,TGI,HL-60(TB) leukemia,> 100 µM
same,GI50,MDA-MB-435,31.3 µM
same,TGI,MDA-MB-435,> 100 µM
same,GI50,NCI-H23 lung,> 52.8 µM
same,TGI,NCI-H23 lung,> 83.7 µM
same,GI50,MCF7 breast,37.3 µM
same,TGI,MCF7 breast,> 100 µM
same,GI50,UACC-257 melanoma,98.5 µM
same,TGI,UACC-257 melanoma,> 100 µM
